Columns and labels:
glucagon receptor (GCGR) = biological target: T1, glucagon receptor (GCGR) (Homo sapiens, UniProt P47871); test: I125-glucagon binding assay (competition, GCGR membrane fractions); settings: competition with I125-glucagon 0.0625 nM, membrane fractions of GCGR overexpressed CHO-K1 cells
T1 construct: expressed in transfected cells; host or cells: CHO-K1 cells overexpressing GCGR (membrane fractions)
Method in brief: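 Competition of 0.0625 nM (final) I^125-glucagon for 30 min at 25° C, after 5 min compound preincubation, using 7.5 μg/well GCGR-overexpressing CHO-K1 membranes in 50 mM Tris pH 7.4, 0.5% BSA. Filtration onto PEI-coated GF/B, micro-beta counting, and non-linear regression gave IC50.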

[1] = biological target: T2, glucagon receptor (GCGR) overexpressed CHO-K1 cells or human primary hepatocytes (Homo sapiens, UniProt P47871); test: Glucagon cAMP inhibition assay (Cisbio cAMP Dynamic 2 HTRF); assay type: cell-based; settings: inhibition of glucagon (EC50 concentration) induced cAMP production
T2 construct: expressed in transfected cells; host or cells: GCGR overexpressed CHO-K1 cells or human primary hepatocytes (endogenous receptor)
Method in brief: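 HTRF read-out of glucagon-induced cAMP, with IC50 from non-linear regression. Cells (GCGR CHO-K1 or human primary hepatocytes) in HBSS/0.1% BSA/800 nM IBMX took compound dilutions for 30 min (final DMSO 1%), then EC50-level glucagon for 30 min at room temperature, then a 60 min lysis/detection step.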

T1 sequence (P47871 26-477): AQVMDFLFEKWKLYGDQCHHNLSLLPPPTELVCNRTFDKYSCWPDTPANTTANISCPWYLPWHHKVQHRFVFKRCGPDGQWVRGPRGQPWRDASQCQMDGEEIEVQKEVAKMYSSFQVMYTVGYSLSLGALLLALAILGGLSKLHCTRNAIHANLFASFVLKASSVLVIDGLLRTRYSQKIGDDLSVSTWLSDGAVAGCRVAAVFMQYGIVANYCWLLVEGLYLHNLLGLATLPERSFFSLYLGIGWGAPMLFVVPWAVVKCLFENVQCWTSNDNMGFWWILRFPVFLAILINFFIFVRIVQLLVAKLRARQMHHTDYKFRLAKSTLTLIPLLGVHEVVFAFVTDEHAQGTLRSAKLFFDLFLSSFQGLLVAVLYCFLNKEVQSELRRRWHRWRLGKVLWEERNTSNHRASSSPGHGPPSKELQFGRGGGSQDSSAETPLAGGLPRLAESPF
T2 sequence (P47871 26-477): as above

SMILES	IC50 (glucagon receptor (GCGR))	IC50 cAMP [1]
CC(C)(C)[C@@H](COc1ccc(-c2ccc(Cl)cc2Cl)c(F)c1)Nc1ccc(C(=O)NCCC(=O)O)cc1 [Compound 8-22, (S)-3-(4-((1-((2′,4′-dichloro-2-fluoro-[1,1′-biphenyl]-4-yl)oxy)-3,3-dimethylbutan-2-yl)amino)benzamido)propanoic Acid]	0.068 µM	0.1669 µM
CC(C)(C)[C@@H](COc1ccc(-c2ccc(C(F)(F)F)cc2F)c(F)c1)Nc1ccc(C(=O)NCCC(=O)O)cc1 [Compound 8-23, (S)-3-(4-((1-((2,2′-difluoro-4′-(trifluoromethyl)-[1,1′-biphenyl]-4-yl)oxy)-3,3-dimethylbutan-2-yl)amino)benzamido)propanoic Acid]	0.081 µM	0.08946 µM
CCCC[C@@H](COc1ccc(-c2nnc(C(F)(F)F)o2)c(F)c1)Nc1ccc(C(=O)NCCC(=O)O)cc1 [Compound 8-24, (S)-3-(4-((1-(3-fluoro-4-(5-(trifluoromethyl)-1,3,4-oxadiazol-2-yl)phenoxy)hexan-2-yl)amino)benzamido)propanoic Acid]	0.366 µM	2.701 µM
CC(C)[C@@H](COc1ccc(-c2nc3ccccc3s2)c(F)c1)Nc1ccc(C(=O)NCCC(=O)O)cc1 [Compound 8-25, (S)-3-(4-((1-(4-(benzo[d]thiazol-2-yl)-3-fluorophenoxy)-3-methylbutan-2-yl)amino)benzamido)propanoic Acid]	0.095 µM	0.653 µM
CC(C)[C@@H](COc1ccc(-c2cc3ccccc3o2)cc1)Nc1cnc(C(=O)NCCC(=O)O)cn1 [Compound 9-1, (S)-3-(5-((1-(4-(benzofuran-2-yl)phenoxy)-3-methylbutan-2-yl)amino)pyrazino-2-carboxamido)propanoic Acid]	0.125 µM	0.3861 µM
CC[C@H](C)[C@@H](COc1ccc(-c2ccc(Cl)cc2Cl)cc1)Nc1cnc(C(=O)NCCC(=O)O)cn1 [Compound 9-2, 3-(5-(((2S,3 S)-1-((2′,4′-dichloro-[1,1′-biphenyl]-4-yl)oxy)-3-methylpentan-2-yl)amino)pyrazine-2-carboxamido)propanoic Acid]	0.363 µM	0.427 µM
CC(C)[C@@H](COc1ccc(-c2ccc(C(F)(F)F)cc2)cc1)Nc1ccc(C(=O)NCCC(=O)O)nc1 [Compound 9-3, (S)-3-(5-((3-methyl-1-((4′-(trifluoromethyl)-[1,1′-biphenyl]-4-yl)oxy)butan-2-yl)amino)picolinamido)propanoic Acid]	0.12 µM	0.487 µM
CC(C)C[C@@H](COc1cc(F)c(-c2ccc(C(F)(F)F)cc2)c(F)c1)Nc1ccc(C(=O)NCCC(=O)O)cn1 [Compound 9-4, (S)-3-(6-((1-((2,6-difluoro-4′-(trifluoromethyl)-[1,1′-biphenyl]-4-yl)oxy)-4-methylpentan-2-yl)amino)nicotinamido)propanoic Acid]	1.67 µM	2.3 µM
CC(C)[C@@H](COc1ccc(-c2nc3ccccc3s2)c(F)c1)Nc1ccc(C(=O)NCCC(=O)O)cn1 [Compound 9-5, (S)-3-(6-((1-(4-(benzo[d]thiazol-2-yl)-3-fluorophenoxy)-3-methylbutan-2-yl)amino)nicotinamido)propanoic Acid]	0.606 µM	2.408 µM
CC(C)C[C@@H](COc1cnn(-c2ccc(F)cc2F)c1)Nc1ccc(C(=O)NCCC(=O)O)cc1 [Compound 9-6, (S)-3-(4-((1-((1-(2,4-difluorophenyl)-1H-pyrazol-4-yl)oxy)-4-methylpentan-2-yl)amino)benzamido)propanoic Acid]	3.65 µM	5.577 µM
CC(C)[C@@H](COc1ccc(-c2ccc(C(F)(F)F)cc2)nc1)Nc1ccc(C(=O)NCCC(=O)O)cc1 [Compound 10-1, (S)-3-(4-((3-methyl-1-((6-(4-(trifluoromethyl)phenyl)pyridin-3-yl)oxy)butan-2-yl)amino)benzamido)propanoic Acid]	0.531 µM	1.959 µM

— patent US11384060B2, “Amide compounds and use thereof” (ALPHALA CO., LTD., priority 2017, dated 2022)
